Experimental data published in patent US6147098A, “Substituted guanidines and diaminonitroethenes, their preparation and use” (Novo Nordisk A/S, priority 1998, dated 2000).

Legend:
IDDM = conditions: animal experiments and early non-blinded experiments in humans; cited from earlier work
rin 5F cells = test: 86Rb+ efflux from a β-cell line (increased Rb-efflux in rin 5F cells); type: cell-based; conditions: 1 h at room temperature
Method: An opening of KATP -channels will result in an efflux of potassium ions. By measuring the release of ^86 Rb^+ (a radioactive potassium mimic) from e.g. beta-cells pre-incubated in the presence of ^86 Rb^+ the effect of compounds acting as potassium channel openers can be determined. The test expresses the ability of the compounds to regulate the secretion of insulin from the beta-cells.
^86 Rb^+ efflux from a β-cell line
The RIN 5F cell line was grown in RPMI 1640 with Glutamax I, supplemented with 10% fetal calf serum (from GibcoBRL, Scotland, UK) and maintained in an atmosphere of 5% CO2 /95% air at 37° C. The cells were detached with a Trypsin-EDTA solution (from GibcoBRL, Scotland, UK), resuspended in medium, added 1 mCi/ml ^86 Rb^+ and replated into microtiter plates (96 well cluster 3596, sterile, from Costar Corporation,Mass., USA) at a density of 50000 cells/well in 100 μl/well, and grown 24 hours before use in assay.
The plates were washed 4 times with Ringer buffer (150 mM NaCl, 10 mM Hepes, 3.0 mM KCl, 1.0 mM CaCl2, 20 mM Sucrose, pH 7.1). Eighty μl Ringer buffer and 1 μl control- or test compound dissolved in DMSO was added. […] The plates were counted in TopCount (Packard Instrument Company, CT, USA) for 1 min/well at the 32p program. […]

rat aorta rings = test: Relaxation of rat aorta rings; type: cell-based; conditions: phenylephrine-contracted rat thoracic aorta rings; cumulative addition; read-out: EC50 (concentration required to evoke a 50% relaxation of the tissue)
Method: The activity of the compounds as potassium channel openers can also be measured as relaxation of rat aorta rings according to the following procedure:
A section of rat thoracic aorta between the aortic arch and the diaphragm was dissected out and mounted as ring preparations as described by Taylor P. D. et al, Brit J. Pharmacol, 111, 42-48 (1994).
After a 45 min. equilibration period under a tension of 2 g, the preparations were contracted to achieve 80% of the maximum response using the required concentration of phenylephrine. When the phenylephrine response reached a plateau, potential vasodilatory agents were added cumulatively to the bath in small volumes using half log molar increments at 2 min intervals. Relaxation was expressed at the percentage of the contracted tension. The potency of a compound was expressed as the concentration required to evoke a 50% relaxation of the tissue.

EC50 (rin 5F cells) [nM] | EC50 (rat aorta rings) [µM] | Compound | role against IDDM and cytokine/immune mediated beta-cell destruction (IDDM)
 |  | NC(=O)c1cccnc1 [Nicotinamide] | protective role
2600 | 5.6 | CC(C)CCN=C(NC#N)Nc1cc(C(F)(F)F)cc(C(F)(F)F)c1 [Example 1, N-Cyano-N'-(3,5-bis(trifluoromethyl)phenyl)-N"-(3-methylbutyl)guanidine] | 
